Measured values: ChEMBL document CHEMBL1201862, “PubChem BioAssay data set” (2004)
Where “and” joins values, the source holds several entries; their conditions need not be identical. Equal entries are not always repeated.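 Briefly, cells in 96-well plates were exposed to five compound concentrations for 48 h, and endpoints were estimated by linear interpolation. Abbreviation: GI50, concentration required for 50% inhibition of growth.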 Calls of active or inactive are those of the source. Cut-off read from the data, not from the text of the source: active = GI50 up to about 1.1 µM and inactive = higher.

Tests used:
Assay in all cases: NCI tumour cell line growth inhibition, 48 h
786-0 = tested on: 786-0
A549 = tested on: A549
ACHN = tested on: ACHN
BT-549 = tested on: BT-549
CAKI-1 = tested on: CAKI-1
CCRF-CEM = tested on: CCRF-CEM
COLO 205 = tested on: COLO 205
DU-145 = tested on: DU-145
EKVX = tested on: EKVX
HCC 2998 = tested on: HCC 2998
HCT-116 = tested on: HCT-116
HCT-15 = tested on: HCT-15
HOP-62 = tested on: HOP-62
HOP-92 = tested on: HOP-92
HT-29 = tested on: HT-29
IGROV-1 = tested on: IGROV-1
K562 = tested on: K562
KM12 = tested on: KM12
LOX IMVI = tested on: LOX IMVI
M14 = tested on: M14
MCF7 = tested on: MCF7
MDA-MB-231 = tested on: MDA-MB-231
MDA-MB-435 = tested on: MDA-MB-435
MDA-N = tested on: MDA-N
MOLT-4 = tested on: MOLT-4
Malme-3M = tested on: Malme-3M
NCI-H226 = tested on: NCI-H226
NCI-H23 = tested on: NCI-H23
NCI-H460 = tested on: NCI-H460
NCI-H522 = tested on: NCI-H522
NCI/ADR-RES = tested on: NCI/ADR-RES
OVCAR-3 = tested on: OVCAR-3
OVCAR-4 = tested on: OVCAR-4
OVCAR-5 = tested on: OVCAR-5
OVCAR-8 = tested on: OVCAR-8
PC-3 = tested on: PC-3
RPMI-8226 = tested on: RPMI-8226
RXF 393 = tested on: RXF 393
SF-295 = tested on: SF-295
SF-539 = tested on: SF-539
SK-MEL-28 = tested on: SK-MEL-28
SK-MEL-2 = tested on: SK-MEL-2
SK-MEL-5 = tested on: SK-MEL-5
SK-OV-3 = tested on: SK-OV-3
SN12C = tested on: SN12C
SNB-19 = tested on: SNB-19
SNB-75 = tested on: SNB-75
SW-620 = tested on: SW-620
T47D = tested on: T47D
TK-10 = tested on: TK-10
U-251 = tested on: U-251
UACC-257 = tested on: UACC-257
UACC-62 = tested on: UACC-62
UO-31 = tested on: UO-31
A498 = tested on: A498
HL-60 = tested on: HL-60
Hs-578T = tested on: Hs-578T
SR = tested on: SR
SF-268 = tested on: SF-268

In the case of CCN(C(=O)N[C@@H](Cc1ccccc1)C(=O)N[C@@H](CC(C)C)C(=O)NC)c1ccccc1, the GI50 (786-0) is reported as > 100 µM (inactive), the GI50 (A549) is reported as > 100 µM (inactive) and the GI50 (ACHN) is reported as > 100 µM (inactive). For the same compound, the GI50 (BT-549) was > 100 µM (inactive), the GI50 (CAKI-1) was > 100 µM (inactive) and the GI50 (CCRF-CEM) was > 100 µM (inactive). The GI50 (COLO 205) was > 100 µM (inactive), the GI50 (DU-145) was > 100 µM (inactive) and the GI50 (EKVX) was > 100 µM (inactive). For the same compound, the GI50 (HCC 2998) was > 100 µM (inactive), the GI50 (HCT-116) was > 100 µM (inactive) and the GI50 (HCT-15) was over 100 µM. The GI50 (HOP-62) was > 100 µM (inactive), the GI50 (HOP-92) was > 100 µM (inactive) and the GI50 (HT-29) was > 100 µM (inactive). The GI50 (IGROV-1) was > 100 µM (inactive), the GI50 (K562) was > 100 µM (inactive) and the GI50 (KM12) was > 100 µM (inactive). For the same compound, the GI50 (LOX IMVI) was > 100 µM (inactive), the GI50 (M14) was > 100 µM (inactive) and the GI50 (MCF7) was > 100 µM (inactive). The GI50 (MDA-MB-231) was > 100 µM (inactive), the GI50 (MDA-MB-435) was > 100 µM (inactive) and the GI50 (MDA-N) was > 100 µM (inactive). The GI50 (MOLT-4) was > 100 µM (inactive), the GI50 (Malme-3M) was > 100 µM (inactive) and the GI50 (NCI-H226) was > 100 µM (inactive). The GI50 (NCI-H23) was > 100 µM (inactive), the GI50 (NCI-H460) was > 100 µM (inactive) and the GI50 (NCI-H522) was > 100 µM (inactive). For the same compound, the GI50 (NCI/ADR-RES) was > 100 µM (inactive), the GI50 (OVCAR-3) was > 100 µM (inactive) and the GI50 (OVCAR-4) was > 100 µM (inactive). The GI50 (OVCAR-5) was > 100 µM (inactive), the GI50 (OVCAR-8) was > 100 µM (inactive) and the GI50 (PC-3) was > 100 µM (inactive). The GI50 (RPMI-8226) was 77.1 µM (inactive), the GI50 (RXF 393) was > 100 µM (inactive) and the GI50 (SF-295) was > 100 µM (inactive). The GI50 (SF-539) was > 100 µM (inactive), the GI50 (SK-MEL-28) was > 100 µM (inactive) and the GI50 (SK-MEL-2) was > 100 µM (inactive). For the same compound, the GI50 (SK-MEL-5) was > 100 µM (inactive), the GI50 (SK-OV-3) was > 100 µM (inactive) and the GI50 (SN12C) was > 100 µM (inactive). For the same compound, the GI50 (SNB-19) was > 100 µM (inactive), the GI50 (SNB-75) was 95.3 µM (inactive) and the GI50 (SW-620) was > 100 µM (inactive). The GI50 (T47D) was > 100 µM (inactive), the GI50 (TK-10) was > 100 µM (inactive) and the GI50 (U-251) was > 100 µM (inactive). The GI50 (UACC-257) was > 100 µM (inactive), the GI50 (UACC-62) was > 100 µM (inactive) and the GI50 (UO-31) was > 100 µM (inactive).

In the case of CC(=O)O[C@H]1CC2C(C3CC[C@H](C(C)CCC(=O)O)[C@]31C)[C@H](OC(C)=O)C[C@@H]1CC3(CC[C@]21C)OOC1(CCC(C)CC1)OO3 (some centres undefined), the GI50 (A498) is reported as 15 µM (inactive) and 13 µM (inactive), the GI50 (A549) is reported as 1.55 µM (inactive) and 2.82 µM (inactive) and the GI50 (ACHN) is reported as 2.59 µM (inactive) and 4.31 µM (inactive). For the same compound, the GI50 (BT-549) was 3.69 µM (inactive) and 2.74 µM (inactive), the GI50 (CCRF-CEM) was 1.67 µM (inactive) and 2.03 µM (inactive) and the GI50 (COLO 205) was 2.53 µM (inactive). The GI50 (DU-145) was 3.32 µM (inactive) and 4.98 µM (inactive), the GI50 (EKVX) was 2.08 µM (inactive) and the GI50 (HCT-116) was 2.16 µM (inactive) and 4.11 µM (inactive). For the same compound, the GI50 (HCT-15) was 2.37 µM and 2.96 µM, the GI50 (HL-60) was 2.97 µM (inactive) and 2.37 µM (inactive) and the GI50 (HOP-62) was 3.16 µM (inactive). The GI50 (HT-29) was 2.11 µM (inactive) and 1.81 µM (inactive), the GI50 (Hs-578T) was 3.4 µM (inactive) and 1.76 µM (inactive) and the GI50 (IGROV-1) was 2.01 µM (inactive). The GI50 (K562) was 3.13 µM (inactive) and 3.9 µM (inactive), the GI50 (LOX IMVI) was 2.15 µM (inactive) and 3.27 µM (inactive) and the GI50 (M14) was 3.49 µM (inactive) and 6.67 µM (inactive). The GI50 (MCF7) was 2.96 µM (inactive) and 4.86 µM (inactive), the GI50 (MDA-MB-435) was 2.62 µM (inactive) and 4.74 µM (inactive) and the GI50 (MDA-N) was 3.77 µM (inactive) and 5.71 µM (inactive). The GI50 (MOLT-4) was 2.2 µM (inactive) and 1.51 µM (inactive), the GI50 (NCI-H23) was 2.28 µM (inactive) and 4.31 µM (inactive) and the GI50 (NCI-H460) was 2.33 µM (inactive) and 3.53 µM (inactive). The GI50 (NCI-H522) was 2.98 µM (inactive) and 1.61 µM (inactive), the GI50 (OVCAR-4) was 2.56 µM (inactive) and 2.32 µM (inactive) and the GI50 (OVCAR-8) was 1.98 µM (inactive) and 2.85 µM (inactive). For the same compound, the GI50 (PC-3) was 5.15 µM (inactive) and 3.17 µM (inactive), the GI50 (RPMI-8226) was 1.91 µM (inactive) and 2.05 µM (inactive) and the GI50 (RXF 393) was 7.82 µM (inactive) and 12.9 µM (inactive). For the same compound, the GI50 (SK-MEL-28) was 2.06 µM (inactive) and 1.66 µM (inactive), the GI50 (SN12C) was 2.72 µM (inactive) and 4.18 µM (inactive) and the GI50 (SNB-75) was 1.6 µM (inactive). The GI50 (SR) was 1.55 µM (inactive), the GI50 (T47D) was 3.07 µM (inactive) and 2.31 µM (inactive) and the GI50 (U-251) was 1.76 µM (inactive) and 3.35 µM (inactive). For the same compound, the GI50 (UACC-257) was 6.92 µM (inactive) and 11.7 µM (inactive) and the GI50 (UO-31) was 2.61 µM (inactive).

In the case of c1ccc(CCN2CCCCCC2)nc1, the GI50 (786-0) is reported as > 100 µM (inactive), the GI50 (A498) is reported as > 100 µM (inactive) and the GI50 (A549) is reported as > 100 µM (inactive). For the same compound, the GI50 (ACHN) was > 100 µM (inactive), the GI50 (BT-549) was > 100 µM (inactive) and the GI50 (CAKI-1) was > 100 µM (inactive). For the same compound, the GI50 (CCRF-CEM) was > 100 µM (inactive), the GI50 (COLO 205) was > 100 µM (inactive) and the GI50 (DU-145) was > 100 µM (inactive). The GI50 (EKVX) was 66.8 µM (inactive), the GI50 (HCT-116) was > 100 µM (inactive) and the GI50 (HCT-15) was over 100 µM. For the same compound, the GI50 (HOP-62) was > 100 µM (inactive), the GI50 (HOP-92) was > 100 µM (inactive) and the GI50 (HT-29) was > 100 µM (inactive). For the same compound, the GI50 (Hs-578T) was > 100 µM (inactive), the GI50 (IGROV-1) was > 100 µM (inactive) and the GI50 (K562) was > 100 µM (inactive). For the same compound, the GI50 (KM12) was > 100 µM (inactive), the GI50 (LOX IMVI) was > 100 µM (inactive) and the GI50 (M14) was > 100 µM (inactive). The GI50 (MCF7) was > 100 µM (inactive), the GI50 (MDA-MB-231) was > 100 µM (inactive) and the GI50 (MDA-MB-435) was > 100 µM (inactive). For the same compound, the GI50 (MOLT-4) was > 100 µM (inactive), the GI50 (Malme-3M) was > 100 µM (inactive) and the GI50 (NCI-H226) was > 100 µM (inactive). For the same compound, the GI50 (NCI-H23) was > 100 µM (inactive), the GI50 (NCI-H460) was > 100 µM (inactive) and the GI50 (NCI-H522) was > 100 µM (inactive). The GI50 (NCI/ADR-RES) was > 100 µM (inactive), the GI50 (OVCAR-3) was > 100 µM (inactive) and the GI50 (OVCAR-4) was > 100 µM (inactive). For the same compound, the GI50 (OVCAR-5) was > 100 µM (inactive), the GI50 (OVCAR-8) was > 100 µM (inactive) and the GI50 (PC-3) was > 100 µM (inactive). For the same compound, the GI50 (RPMI-8226) was > 100 µM (inactive), the GI50 (RXF 393) was > 100 µM (inactive) and the GI50 (SF-268) was > 100 µM (inactive). For the same compound, the GI50 (SF-295) was > 100 µM (inactive), the GI50 (SK-MEL-28) was > 100 µM (inactive) and the GI50 (SK-MEL-2) was > 100 µM (inactive). The GI50 (SK-MEL-5) was > 100 µM (inactive), the GI50 (SK-OV-3) was > 100 µM (inactive) and the GI50 (SN12C) was > 100 µM (inactive). The GI50 (SNB-19) was > 100 µM (inactive), the GI50 (SW-620) was > 100 µM (inactive) and the GI50 (T47D) was > 100 µM (inactive). The GI50 (TK-10) was > 100 µM (inactive), the GI50 (U-251) was > 100 µM (inactive) and the GI50 (UACC-62) was > 100 µM (inactive). The GI50 (UO-31) was > 100 µM (inactive).
